Reference: patent publication US11801255B2, “Lipid disulfide prodrugs and uses related thereto” (priority 2017, dated 2023)
Where two headings read alike, the source gives them in different places.

Columns and labels:
[1] = system: HIV-1; test: microbe, parasite or virus in culture; details: for TI(CC50/EC50): HIV-1, PBMCs; for HIV-1 potency compared to parent nucleoside TFV: in words
Protocol: (§1) Compounds synthesized were evaluated against HIV-infected PBMCs and antiviral activity was assessed by measuring reverse transcriptase in cell supernatants. Compounds 11a-e, 12a-e, and 13 were assayed against HBV and qPCR was used to quantify viral DNA following incubation in HepG2.2.15 cells after 6 days.

[2] = system: PBMCs; test: in vitro; format: cell-based, human
[3] = system: HBV; test: Antiviral activity against HBV in HepG2.2.15 cells, viral DNA by qPCR after 6 days; details: for HBV TI (CC50/EC50): HepG2
Protocol: as §1

[4] = system: HepG2; test: Cytotoxicity: viability of uninfected HepG2 cells; format: cell-based; details: read-out: HBV CC50 (HepG2)
[5] = in vitro; format: cell-based, human; details: human, uninfected PBMCs; Table 1; viability of uninfected cells reduced by 50%; read-out: HIV-1 CC50 (PBMCs)
[6] = Cytotoxicity: viability of uninfected HepG2 cells; format: cell-based; details: human, uninfected HepG2 cells; Table 1; uninfected cells; read-out: HBV CC50 (HepG2)
[7] = Stability in human plasma/serum by LC-MS; format: in vitro ADME
Protocol: Aliquots of each sample were analyzed by LC-MS at varying times points over the course of 2 hours with a final time point at 24 to assess decomposition.

[8] = Stability in PBS (pH 7.4), carbonate/bicarbonate buffer (pH 9) and DMEM by LC-MS; details: for half-life: PBS buffer
Protocol: Compound 11c and 11d were selected as model compounds and subjected to various media including human serum, PBS buffer (pH 7.4), Dulbecco's Modified Eagle Medium (DMEM), and carbonate/bicarbonate buffer (pH 9). Aliquots of each sample were analyzed by LC-MS at varying times points over the course of 2 hours with a final time point at 24 to assess decomposition.
Experiments were performed to see how compounds how compounds 11c and 11d would fare in the presence of base (pH 9), PBS (pH 7.4), and upon exposure to nucleophilic media (DMEM). […] To this end, the stability of hexadecyloxypropyl 2′-deoxy-2′-fluorouridine, a non-labile alkoxyalkyl lipid conjugate of 2′-deoxy-2′-fluorouridine in PBS buffer using Pyrex, Kimax, and silanized glassware was assessed. […] This prompted re-assessment of the PBS stability of the disulfide lipid conjugates in Kimax glassware. Note that all stability experiments were performed in Kimax glassware using hexadecyloxypropyl 2′-deoxy-2′-fluorouridine as an internal standard.

[9] = read-out: EC50 (PBMCs), Table 4, HIV-1
[10] = read-out: HIV-1 EC50 (PBMCs), Table 1, inhibit HIV-1 by 50%, average of triplicate
[11] = read-out: HIV-1 EC50 (PBMCs), Table 2
[12] = read-out: HIV-1 activity (EC50), PBMCs
[13] = Table 1, viability of uninfected cells reduced by 50%, read-out: HIV-1 CC50 (PBMCs)
[14] = Table 2, read-out: HIV-1 CC50 (PBMCs)
[15] = Table 4, read-out: CC50 (PBMCs)
[16] = read-out: HBV EC50 (HepG2), Table 1, inhibit HBV by 50%
[17] = read-out: HBV EC50 (HepG2), Table 2

| Compound | HIV-1 TI (CC50/EC50) ([1]; Table 1, PBMCs) | HIV-1 TI (CC50/EC50) ([1]; Table 2, PBMCs) | EC50 [1, 11] [µM] | EC50 [1, 12] [µM] | CC50 [2, 13] [µM] | CC50 [2, 14] [µM] | HBV TI (CC50/EC50) ([3]; Table 1) | HBV TI (CC50/EC50) ([3]; Table 2) | EC50 [3, 16] [µM] | EC50 [3, 17] [µM] | CC50 ([4]; Table 1, uninfected cells) [µM] | CC50 ([4]; Table 2) [µM] | other results |
| --- | --- | --- | --- | --- | --- | --- | --- | --- | --- | --- | --- | --- | --- |
| tenofovir disoproxil fumarate [TDF, reference compound] | 9,500 | 9,500 | 0.0046 | 0.0046 | 43.7 | 43.7 | 190 | 86 | 0.34 | 0.34 | 64.5 | 29.2 | HIV-1 TI (CC50/EC50) ([1]; Table 3, PBMCs): 9,500; TI(CC50/EC50) ([1]; Table 4): 9,500; EC50 [1, 9]: 0.0046 µM; EC50 [1, 10]: 0.0046 µM; EC50 ([1]; read-out: HIV-1 EC50 (PBMCs), Table 3): 0.0045 µM; CC50 ([2]; Table 3, read-out: HIV-1 CC50 (PBMCs)): 44 µM; CC50 [2, 15]: 43.7 µM; HBV TI (CC50/EC50) ([3]; Table 3): 190; EC50 ([3]; read-out: HBV EC50 (HepG2), Table 3): 0.34 µM; CC50 ([4]; Table 3): 64.5 µM |
| CCCCCCCCCCCCCCCCSSCCOP(=O)(O)COC(C)Cn1cnc2c(N)ncnc21 (centres unmarked) [Compound 11d, 2-(hexadecyldisulfanyl)ethyl hydrogen (((1-(6-amino-9H-purin-9-yl)propan-2-yl)oxy)methyl)phosphonate] | 22,000 | – | – | – | – | – | >1250 | – | – | – | – | – | EC50 ([1]; Human immunodeficiency virus 1, PBMC, read-out: HIV-1 EC50 (PBMCs)): 0.00065 µM; EC50 ([1]; Human immunodeficiency virus 1, PBMC, read-out: HIV-1 activity (EC50)): ~0.0005 µM; HIV-1 TI (CC50/EC50) ([1]; Table 3, PBMCs): 22,000; CC50 [5]: 14.3 µM; EC50 ([3]; Hepatitis B virus, HepG2, read-out: HBV EC50 (HepG2)): 0.02 µM; EC50 ([3]; Hepatitis B virus, HepG2, read-out: HBV potency): 0.02 µM; HBV TI (CC50/EC50) ([3]; Table 3): >1200; CC50 [6]: > 25 µM; CC50 ([4]; Table 3): > 25 µM; half-life ([7]; human serum, Kimax glassware, read-out: stability (half-life) in human serum): > 24 h; half-life ([7]; human, human plasma, read-out: half-life in human plasma): > 24 h; half-life ([8]; carbonate/bicarbonate buffer and DMEM, pH 9): ≤ 2 h; half-life ([8]; pH 7.4): < 0.333 h |
| CCCCCCCCCCCCCCCCSSCCOP(=O)(COC(C)Cn1cnc2c(N)ncnc21)Nc1ccccc1 (mixture of isomers) [Compound 20] | – | – | – | 0.005 | – | – | – | – | – | – | – | – | TI(CC50/EC50) ([1]; Table 4): 7,000; CC50 [2, 15]: 34.2 µM |
| CCCCCCCCCCCCCCSSCCOP(=O)(O)CO[C@H](C)Cn1cnc2c(N)ncnc21.N [Compound 11c] | 28,000 | – | – | – | 14 | – | >56 | – | 0.444 | – | > 25 | – | EC50 [1, 10]: 0.0005 µM; stability of C14 chain relative to C16 linker of compound 11d ([8]; all examined media except human serum): near two-fold stability increase |
| CCCCCCCCCCCCSSCCOP(=O)(O)CO[C@H](C)Cn1cnc2c(N)ncnc21.N [Compound 11b] | 8,300 | – | – | 0.003 | 25 | – | >30 | – | 1.67 | – | > 50 | – | fold more active than CMX-157, HIV-1 ([1]; vs CMX-157 (20 nM)): seven-fold |
| CCCCCCCCCCCCCCCCCCSSCCOP(=O)(CO[C@H](C)Cn1cnc2c(N)ncnc21)OCCSSCCCCCCCCCCCCCCCCCC [Compound 12e] | – | >76 | 0.331 | – | – | > 25 | – | >1 | – | > 25 | – | > 25 | HIV-1 potency compared to parent nucleoside TFV [1]: comparable to TFV |
| CCCCCCCCCCSSCCOP(=O)(CO[C@H](C)Cn1cnc2c(N)ncnc21)OCCSSCCCCCCCCCC [Compound 12a] | – | >287 | 0.349 | – | – | > 100 | – | >1 | – | > 100 | – | > 100 | HIV-1 potency compared to parent nucleoside TFV [1]: comparable to TFV |
| CCCCCCCCCCCCCCCCSSCCOP(=O)(CO[C@H](C)Cn1cnc2c(N)ncnc21)OCCSSCCCCCCCCCCCCCCCC [Compound 12d] | – | 4.0 | 6.32 | – | – | > 25 | – | >1 | – | > 25 | – | > 25 | – |
| CCCCCCCCCCSSCCOP(=O)(O)CO[C@H](C)Cn1cnc2c(N)ncnc21.N [Compound 11a] | >590 | – | – | 0.085 | > 50 | – | >1 | – | > 50 | – | > 50 | – | fold less potent than TDF, HIV-1 ([1]; EC50 ratio vs TDF): 18 fold |
| CCCCCCCCCCCCCCSSCCOP(=O)(CO[C@H](C)Cn1cnc2c(N)ncnc21)OCCSSCCCCCCCCCCCCCC [Compound 12c] | – | >529 | 0.189 | – | – | > 100 | – | >1 | – | > 100 | – | > 100 | HIV-1 potency compared to parent nucleoside TFV [1]: two-fold increase in activity |
| CCCCCCCCCCCCCCCCSSCCOP(=O)(COC(C)Cn1cnc2c(N)ncnc21)OC(C)CC (mixture of isomers) [Compound 17] | – | – | – | – | – | – | – | – | – | – | – | – | TI(CC50/EC50) ([1]; Table 4): 480; EC50 [1, 9]: 0.049 µM; HIV-1 activity of s-Bu ester relative to n-Bu analogue 16 ([1]; vs compound 16): nearly four-fold; CC50 [2, 15]: 23.7 µM |
